Holding throughout (format): biochemical
Assay [1] addresses T1, hMeprin β (Homo sapiens, UniProt Q16820).
T1 sequence (Q16820 62-701): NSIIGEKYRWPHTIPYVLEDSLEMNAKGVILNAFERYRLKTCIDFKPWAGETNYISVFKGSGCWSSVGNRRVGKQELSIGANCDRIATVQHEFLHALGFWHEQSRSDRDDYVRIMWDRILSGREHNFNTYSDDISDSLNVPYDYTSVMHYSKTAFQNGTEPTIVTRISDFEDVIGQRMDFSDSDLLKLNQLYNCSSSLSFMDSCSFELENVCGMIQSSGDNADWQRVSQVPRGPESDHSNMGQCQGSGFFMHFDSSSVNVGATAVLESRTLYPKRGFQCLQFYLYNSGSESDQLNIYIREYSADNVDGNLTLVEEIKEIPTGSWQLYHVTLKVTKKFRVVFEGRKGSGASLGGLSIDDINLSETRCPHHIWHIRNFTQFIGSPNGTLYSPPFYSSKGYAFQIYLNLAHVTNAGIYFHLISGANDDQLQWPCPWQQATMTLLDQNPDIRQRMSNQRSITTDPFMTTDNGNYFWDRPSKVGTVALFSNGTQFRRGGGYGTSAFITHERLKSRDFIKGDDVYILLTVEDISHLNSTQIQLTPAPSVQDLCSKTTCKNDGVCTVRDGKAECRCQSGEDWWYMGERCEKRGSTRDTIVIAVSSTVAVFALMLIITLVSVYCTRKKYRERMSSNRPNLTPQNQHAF
The assay can be described thus: Enzymatic assay, quenched peptide substrate cleavage, method A. Particulars: geometric mean (geometric SD factor in parentheses), read-out: Meprin beta IC50. How it is done:
(§1) The determination of enzymatic activity was based on the cleavage of internally quenched peptide substrates. A typical assay of 250 μl total volume measured in black 96 well plates consisted of 100 μl buffer, 50 μl enzyme at a final concentration of 5e-8 M to 2e-10 M, 50 μl substrate (0.15 to 80 μM, in buffer, 0.5% DMSO) and 50 μl inhibitor solution (in buffer, 1% DMSO). In case of 125 μl assay volume (black 96 half area well plates) all volumes were cut in half. Enzymatic activity of ADAMs was measured in 384 well plates with 60 μl total assay volume consisting of 20 μl inhibitor, 20 μl buffer, 10 μl enzyme and 10 μl substrate.
(§2) Based on method B Ki^(app) values were determined using Morrison's equation. All measurements were performed using a fluorescence plate reader (FLUOSTAR OPTIMA, BMG Labtech) at 30° C. The kinetic parameters were determined at least in duplicates on separate days. The excitation/emission wavelength was 340/420 nm. The kinetic data was evaluated using GRAFIT software (version 7.0.3, Erithacus Software).

Assay [2] concerns the target T2, hMeprin α (Homo sapiens, UniProt Q16819).
T2 sequence (Q16819 66-746): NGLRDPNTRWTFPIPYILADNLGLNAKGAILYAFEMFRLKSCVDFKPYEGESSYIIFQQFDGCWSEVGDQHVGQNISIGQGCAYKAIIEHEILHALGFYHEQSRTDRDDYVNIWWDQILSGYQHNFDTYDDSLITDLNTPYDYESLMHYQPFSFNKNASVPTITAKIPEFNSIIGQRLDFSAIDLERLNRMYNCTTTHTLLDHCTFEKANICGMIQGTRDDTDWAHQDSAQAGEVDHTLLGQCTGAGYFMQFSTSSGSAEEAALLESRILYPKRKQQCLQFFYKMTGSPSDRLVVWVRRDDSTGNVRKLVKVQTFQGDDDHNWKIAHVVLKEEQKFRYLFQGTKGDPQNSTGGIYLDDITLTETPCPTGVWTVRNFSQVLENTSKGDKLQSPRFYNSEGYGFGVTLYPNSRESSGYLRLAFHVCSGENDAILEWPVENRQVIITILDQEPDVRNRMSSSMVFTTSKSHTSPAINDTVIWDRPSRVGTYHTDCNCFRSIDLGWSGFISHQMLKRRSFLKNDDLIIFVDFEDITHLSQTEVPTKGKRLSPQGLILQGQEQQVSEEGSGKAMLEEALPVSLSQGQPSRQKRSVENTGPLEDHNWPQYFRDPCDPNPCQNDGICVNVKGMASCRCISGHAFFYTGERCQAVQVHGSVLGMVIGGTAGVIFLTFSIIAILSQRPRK
Described as above. Particulars: geometric mean (geometric SD factor in parentheses), read-out: Meprin alpha IC50. How it is done: as §1, §2

The target of assay [3] is T1, hMeprin β. Description: Enzymatic assay, quenched peptide substrate cleavage, method B. The conditions noted are these: geometric mean (geometric SD factor in parentheses); for Ki: Morrison's equation, read-out: Meprin beta Ki(app); for IC50: read-out: Meprin beta IC50. The method in brief:
(§3)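 Cleavage of internally quenched peptides was read at 340/420 nm and 30° C., with enzyme at 5e-8 to 2e-10 M and substrate at 0.15–80 μM. Inhibitor solutions contained 1% DMSO and substrate 0.5% DMSO. Method B gave Ki(app) values via Morrison's equation, with kinetics measured in at least duplicate on separate days.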

The target of assay [4] is T2, hMeprin α. The description is as above. Particulars: geometric mean (geometric SD factor in parentheses); for Ki: Morrison's equation, read-out: Meprin alpha Ki(app); for IC50: read-out: Meprin alpha IC50. In short, it runs like this:
as §3

In the case of `O=C(CCn1c(-c2ccccc2)nc2ccccc21)NO` [Example 14, 3-(2-Phenylbenzimidazol-1-yl)propanehydroxamic acid], the IC50 on hMeprin β [1] turned out to be 28000 nM; on hMeprin α [2] it was 1130 nM; on hMeprin β [3] it was 32400 nM; at hMeprin α [4] it was 708 nM. For the same compound, the Ki worked out at 31700 nM on hMeprin β [3] and 701 nM at hMeprin α [4].
`O=C(Cc1c(-c2ccc(Cl)c(O)c2F)nc2ccccn12)NO` [Example 28, 2-[2-(4-Chloro-2-fluoro-3-hydroxy-phenyl)imidazo-[1,2-a]pyridin-3-yl]ethanehydroxamic acid]: the IC50 at hMeprin β [1] came to 23 nM; at hMeprin α [2], 135 nM; on hMeprin β [3], 81 nM; at hMeprin α [4], 92 nM. Further, the Ki at hMeprin β [3] was 80 nM; on hMeprin α [4] it was 90 nM.

The IC50 is the point on the concentration scale where inhibition reaches its midpoint.

For the origin of these results see patent US20250388544A1, “HETEROAROMATIC INHIBITORS OF ASTACIN PROTEINASES” (VIVORYON THERAPEUTICS N.V., priority 2019, published 2025).
